Results on eight compounds are retold here after patent publication US20260283205A1, “ACYLATED DIHYDROCHALCONES, METHODS OF PRODUCTION AND USES THEREOF” (SYMRISE AG, priority 2023, published 2026).

Holding throughout (assay type): in vivo
For one test, the system named is trained flavourist panel. Briefly: Sensory profile (impact, intensity, mouthfeel, lingering sweetness) of 5% sucrose solution with added compound. The following applies: 5% sucrose solution (A1) + HG 50 ppm, compound 9 15 ppm, 41 5 ppm, 57 3 ppm, 73 5 ppm, 89 5 ppm; for Lingering sweetness: sucrose alone scores 1; for Impact: sucrose alone scores 3; for Intensity / Mouthfeel: sucrose alone scores 4. The protocol: A 5% sucrose solution was prepared. Compounds 9, 41, 57, 73 and 89 were provided as described in Example 3 and purified to >95% with preparative chromatography.
The sensory profile of the sucrose solution (control) and the sucrose solution including HG (control), compounds 9, 41, 57, 73 or 89 was determined by a trained flavourist panel comparing the impact, intensity and mouthfeel.

The test system of test [1] is panel of 20 trained panellists. Kind of test: Intrinsic sweetness: concentration in water equally sweet as a 1.5% sucrose solution. Conditions: no significant difference (p<0.05) to 1.5% sucrose. The protocol:
Compounds 9, 41, 57, 73 and 89 were provided as described in Example 3 and purified to >95% with preparative chromatography. The obtained compounds were used for sensory evaluations.
The intrinsic sweetness of the compounds was determined by a panel of 20 trained panellists. The intrinsic sweetness of a compound is determined by evaluating the sweetness of the compound at different concentrations in water against a 1.5% sucrose solution.
A mixture of butanoylated HG and a mixture of pentanoylated HG were provided as described in Example 3.
The intrinsic sweetness was determined as described in Example 4. As shown in the table, the concentrations of the acylated compounds, which represent equal sweetness as the 1.5% sucrose solution, are approximately ⅕ to ⅛ of the required concentration of HG (non-acylated). Thus, acylation of HG provides a strong increase of the intrinsic sweetness.

For test [2], the system named is trained sensory panel (n=20). Kind of test: Paired comparison tests (Duo test): sweetness increase of 5% sucrose solution in water. Details: unit not given here. The following applies: dosage HG 50, compound 9 10, 41 5, 57 3, 73 5, 89 5 mg/kg. The protocol: The sensory impact of the compounds 9, 41, 57, 73 and 89 on a 5% sucrose solution in water was analysed by a trained sensory panel (n=20) using a series of paired comparison tests (Duo test). The samples were coded and randomized.

Test [3] relates to panel of five flavorists (n=5). Kind of test: Taste descriptors (scale 0-9) of sugar base with sweet tasting / sweet taste modulating substances, without (A) and with (B) compound 41 or 57. Conditions: for Lingering sweetness (0-9), Δ (B-A) / Mouthfeel (0-9), Δ (B-A) / Onset sweetness (0-9), Δ (B-A) / Overall sweetness (0-9), Δ (B-A) / Mouthfeel (0-9), sample A / Lingering sweetness (0-9), sample A / Onset sweetness (0-9), sample A / Overall sweetness (0-9), sample A: scale 0-9; for Mouthfeel (0-9), sample A / Lingering sweetness (0-9), sample A / Onset sweetness (0-9), sample A / Overall sweetness (0-9), sample A: n=5; for Onset sweetness (0-9), A / Overall sweetness (0-9), A: samples (A): sugar base (5% sucrose+0.1% citric acid) + PH 25, HT 12, HC 50, RS 75, LHG 20, PD 3 or SG 60 mg/kg, without compound 41; for Onset sweetness (0-9), A: base alone 2.0; for Overall sweetness (0-9), A: base alone 3.0. The protocol:
A sugar base (5% sucrose+0.1% citric acid) was provided. Further, the sweet tasting substances RS (20% Rubusoside), SG (90% steviol oligoglucosides), HC (8% Hesperetin dihydrochalcone), LHG (52% mogroside V) and the sweet taste modulating substances PD (>95% Phyllodulcin), HT (>85% Hesperetin) and PH (>98% Phloretin) were provided and added to the sugar base to produce different samples (A).
A dose of 2 mg/kg compound 41 or, respectively, 1.2 mg/kg compound 57 was added to the samples to obtain samples (B).
Different taste descriptors were compared between the respective samples (A) and (B) by a panel of five flavorists (n=5) using a scale of 0-9.
The panelists were asked to neutralize with tap water between each sample and the intensity of the descriptors of each sample were defined before tasting the next sample. The tasting of each RS, SG, HC, LHG, PD, HT or PH (samples (A)) were followed by the samples with added RS, SG, HC, LHG, PD, HT or PH+compound (41 or 57) (samples (B)) with each being compared to the intensities of the base.

Test [4] deals with panel of five flavorists (n=5). Kind of test: Sweet taste modulation in lemonade bases with reduced sugar content, descriptor intensities 0-9. The following applies: 5 mg/kg compound 41 or 3 mg/kg compound 57, intensity 0-9. On the procedure:
A dose of 5 mg/kg compound 41 or, respectively, 3 mg/kg compound 57 were applied to different sugar reduced lemonade bases to restore the overall and sweet taste of the respective matrix with reduced sugar content. Different descriptors were determined by a panel of five flavorists (n=5) and given as intensities from 0-9.
The lemonade bases were “full sugar”, “sugar reduced”, “Stevia Hybride”, “Sugar free base Suc/Ace K” and “Sugar free base Asp/Ace K” with the following recipes: […]

Setting [5] is: difference between sample B (+2 mg/kg compound 41) and sample A.
Where [6] appears, read: lemonade base "Sugar free base Asp/Ace K".
[7] abbreviates: lemonade base "Sugar free base Suc/Ace K".
Setting [8] is: difference between sample B (+1.2 mg/kg compound 57) and sample A.
Where [9] appears, read: compound 41 series, sample A: sugar base (5% sucrose+0.1% citric acid) + sample substance alone at the listed dose (PH 25, HT 12, HC 50, RS 75, LHG 20, PD 3, SG 60 mg/kg).
The mark [10] stands for this setting: compound 41 series, sample A: sugar base + sample substance alone at the listed dose.
Setting [11] is: compound 57 series, sample A: sugar base + sample substance alone at the listed dose.

SMILES strings stand for the structures.

Consider `COc1ccc(CCC(=O)c2c(O)cc(O[C@@H]3O[C@H](COC(C)=O)[C@@H](O)[C@H](O)[C@H]3O)cc2O)cc1O` [Compound 9, 6″-O-Acetyl-HG], for which, in the test with trained flavourist panel, the Lingering sweetness is on record as 2, the Impact worked out at 3, the Intensity is 4-5 and the Mouthfeel is 4-5. For the same compound, the “Concentration of equal sweetness as 1.5% sucrose control” value (“Concentration … as 1.5% sucrose control” below) in test [1] amounted to 15 mg/kg. This compound also had an Increase of sweetness in test [2] of 33.1.

For the compound `CCCC(=O)OC[C@H]1O[C@@H](Oc2cc(O)c(C(=O)CCc3ccc(OC)c(O)c3)c(O)c2)[C@H](O)[C@@H](O)[C@@H]1O` [Compound 41, 6″-O-Butanoyl-HG], in test [3] (setting [5]), the “Lingering sweetness (0-9), Δ (B-A)” value was 1.0 and the “Mouthfeel (0-9), Δ (B-A)” value is listed as 1.0. Moreover, in the test on trained flavourist panel, the Lingering sweetness is reported as 2-3, the Impact is listed as 4-5, the Intensity is recorded as 5-6 and the Mouthfeel was found to be 5. In addition, in test [1], the “Concentration … as 1.5% sucrose control” value stood at 5 mg/kg. In test [4] (lemonade base "Stevia Hybrid"), this compound returned a Lingering sweetness of 1, a Mouthfeel of 4.5, an Onset of 4 and an Overall sweetness of 5.5. In test [4] (setting [6]), this compound showed a Lingering sweetness of 2.5, a Mouthfeel of 3.5, an Onset of 4 and an Overall sweetness of 5. For the same compound, in test [4] (setting [7]), the Lingering sweetness is listed as 3, the Mouthfeel stood at 2, the Onset was 2.5 and the Overall sweetness is 4.5. In test [4] (lemonade base "Sugar reduced"), this compound gave a Lingering sweetness of 0.5, a Mouthfeel of 3.5, an Onset of 4 and an Overall sweetness of 4.5. This compound also had an Increase of sweetness in test [2] of 24.4.

With `CCCCC(=O)OC[C@H]1O[C@@H](Oc2cc(O)c(C(=O)CCc3ccc(OC)c(O)c3)c(O)c2)[C@H](O)[C@@H](O)[C@@H]1O` [Compound 57, 6″-O-Pentanoyl-HG], in test [3] (setting [8]), the “Lingering sweetness (0-9), Δ (B-A)” value was found to be 1.0; the “Mouthfeel (0-9), Δ (B-A)” value is given as 0.5; the “Onset sweetness (0-9), Δ (B-A)” value stood at 0.5; the “Overall sweetness (0-9), Δ (B-A)” value worked out at 1.0. Also, in the test with trained flavourist panel, the Lingering sweetness came out at 3, the Impact was 4-5, the Intensity is 5-6 and the Mouthfeel worked out at 5. Besides, in test [1], the “Concentration … as 1.5% sucrose control” value is 3 mg/kg. In test [4] (lemonade base "Stevia Hybrid"), this compound showed a Lingering sweetness of 2.5, a Mouthfeel of 5, an Onset of 4 and an Overall sweetness of 6. In test [4] (setting [6]), this compound showed a Lingering sweetness of 3.5, a Mouthfeel of 3.5, an Onset of 3.5 and an Overall sweetness of 5. In test [4] (setting [7]), the Lingering sweetness is listed as 4, the Mouthfeel was found to be 2.5, the Onset came to 3 and the Overall sweetness is listed as 5. In addition, in test [4] (lemonade base "Sugar reduced"), the Lingering sweetness was found to be 2, the Mouthfeel is given as 4, the Onset is listed as 4 and the Overall sweetness amounted to 4.5. The same compound gave an Increase of sweetness in test [2] of 25.2.

In the case of `CCCCCC(=O)OC[C@H]1O[C@@H](Oc2cc(O)c(C(=O)CCc3ccc(OC)c(O)c3)c(O)c2)[C@H](O)[C@@H](O)[C@@H]1O` [Compound 73, 6″-O-Hexanoyl-HG], in the test on trained flavourist panel, the Lingering sweetness is 3-4, the Impact is listed as 4-5, the Intensity is 6-7 and the Mouthfeel is 5. The “Concentration … as 1.5% sucrose control” value in test [1] came to 5 mg/kg. The Increase of sweetness in test [2] came to 23.1.

`CCCCCCC(=O)OC[C@H]1O[C@@H](Oc2cc(O)c(C(=O)CCc3ccc(OC)c(O)c3)c(O)c2)[C@H](O)[C@@H](O)[C@@H]1O` [Compound 89, 6″-O-Heptanoyl-HG]: in the test with trained flavourist panel, the Lingering sweetness is on record as 3-4, the Impact is recorded as 4-5, the Intensity was 6-7 and the Mouthfeel is listed as 5. Besides, the “Concentration … as 1.5% sucrose control” value in test [1] is given as 5 mg/kg. In test [2], this compound gave an Increase of sweetness of 27.7.

As to `COc1ccc([C@@H]2CC(=O)c3c(O)cc(O)cc3O2)cc1O` [HT, Hesperetin], the “Mouthfeel (0-9), sample A” value in test [3] (setting [9]) amounted to 3.5. For the same compound, the “Lingering sweetness (0-9), sample A” value in test [3] (setting [10]) is 0.0. Moreover, in test [3] (setting [11]), the “Lingering sweetness (0-9), sample A” value is reported as 0.0; the “Mouthfeel (0-9), sample A” value was found to be 3.5; the “Onset sweetness (0-9), sample A” value worked out at 2.5; the “Overall sweetness (0-9), sample A” value was 3.5. Besides, in test [3] (setting [8]), the “Lingering sweetness (0-9), Δ (B-A)” value worked out at 2.0; the “Mouthfeel (0-9), Δ (B-A)” value worked out at 0.5; the “Onset sweetness (0-9), Δ (B-A)” value came to 1.0; the “Overall sweetness (0-9), Δ (B-A)” value was 1.5. In addition, in test [3] (setting [5]), the “Lingering sweetness (0-9), Δ (B-A)” value was 1.0 and the “Mouthfeel (0-9), Δ (B-A)” value came to 0.5. In test [3], the “Onset sweetness (0-9), A” value is 2.5 and the “Overall sweetness (0-9), A” value was 3.5.

For the compound `COc1ccc([C@H]2Cc3cccc(O)c3C(=O)O2)cc1O` [PD, Phyllodulcin], in test [3] (setting [9]), the “Mouthfeel (0-9), sample A” value came out at 4.0. Moreover, the “Lingering sweetness (0-9), sample A” value in test [3] (setting [10]) came out at 1.0. In test [3] (setting [11]), the “Lingering sweetness (0-9), sample A” value is listed as 1.0; the “Mouthfeel (0-9), sample A” value is listed as 3.5; the “Onset sweetness (0-9), sample A” value is recorded as 2.5; the “Overall sweetness (0-9), sample A” value amounted to 4.0. In test [3] (setting [8]), the “Lingering sweetness (0-9), Δ (B-A)” value is listed as 0.5; the “Mouthfeel (0-9), Δ (B-A)” value is 1.0; the “Onset sweetness (0-9), Δ (B-A)” value came to 0.5; the “Overall sweetness (0-9), Δ (B-A)” value turned out to be 1.0. For the same compound, in test [3] (setting [5]), the “Lingering sweetness (0-9), Δ (B-A)” value is recorded as 1.0 and the “Mouthfeel (0-9), Δ (B-A)” value is 0.5. Besides, in test [3], the “Onset sweetness (0-9), A” value came out at 2.5 and the “Overall sweetness (0-9), A” value is on record as 4.0.

Consider `O=C(CCc1ccc(O)cc1)c1c(O)cc(O)cc1O` [PH, Phloretin], for which, in test [3] (setting [9]), the “Mouthfeel (0-9), sample A” value was 4.0. Moreover, the “Lingering sweetness (0-9), sample A” value in test [3] (setting [10]) is listed as 0.0. Besides, in test [3] (setting [11]), the “Lingering sweetness (0-9), sample A” value is 0.0; the “Mouthfeel (0-9), sample A” value was 3.5; the “Onset sweetness (0-9), sample A” value stood at 2.5; the “Overall sweetness (0-9), sample A” value stood at 3.5. Moreover, in test [3] (setting [8]), the “Lingering sweetness (0-9), Δ (B-A)” value is listed as 1.5; the “Mouthfeel (0-9), Δ (B-A)” value came out at 0.5; the “Onset sweetness (0-9), Δ (B-A)” value is on record as 0.5; the “Overall sweetness (0-9), Δ (B-A)” value is given as 1.0. Besides, in test [3] (setting [5]), the “Lingering sweetness (0-9), Δ (B-A)” value stood at 1.0 and the “Mouthfeel (0-9), Δ (B-A)” value stood at 0.5. In test [3], the “Onset sweetness (0-9), A” value is given as 3.0 and the “Overall sweetness (0-9), A” value is on record as 4.0.
